{"source": "patent US20250057808A1", "about": "“COMPOSITION COMPRISING BETA LACTAM FOR TREATING ALCOHOL DEPENDENCE AND ALCOHOL ASSOCIATED DISEASES OR CONDITIONS” (Temple University of the Commonwealth System of Higher …, priority 2023, published 2025)", "key": {"PPAR-γ": {"test_system": "PPAR-γ", "assay": "Western blot PPAR-γ expression in liver", "assay_type": "in vivo, P rats", "details": "MC-100093 50 mg/kg or ceftriaxone 200 mg/kg i.p. 5 days; between all groups", "experimental": "Western Blot assay was performed to measure changes in the expression of GLT-1, xCT, mGluR1, mGluR5, PPAR-α, PPARγ, GAPDH and β-tubulin in the NAc-core and NAc-shell as described in previous publications. A lysis buffer containing protease and phosphatase inhibitors was used to generate a homogenate of liver, Nac-core, and Nac-shell samples. The amount of protein was quantified using a detergent compatible protein assay (Bio-Rad, Hercules, CA, USA) for each sample. Samples were mixed with laemmli dye and loaded with equal amounts on polyacrylamide gels (10%), which separated the proteins using electrophoresis. After that, polyvinylidene difluoride (PVDF) membranes were used to transfer the proteins electrophoretically from the gels. Membranes were incubated in 5% free-fat milk in Tris-buffered saline with Tween-20 (TBST) for 30-60 minutes at room temperature. Membranes were then incubated with appropriate primary antibodies overnight at 4° C.: rabbit anti-GLT-1 (1:5000, Abcam, ab41621), rabbit anti-xCT (1:2000, Abcam, ab175186), rabbit anti-mGluR1 (1:1000, Abcam, ab82211), rabbit anti-mGluR5 (1:1000, Abcam, ab76316), rabbit anti-PPAR-α (1:1000, Abcam, ab24509), and rabbit anti-PPARγ (1:1000, Abcam, ab209350). […]"}, "mGluR5": {"test_system": "mGluR5", "assay": "Western blot mGluR5 expression in NAc-core and NAc-shell", "assay_type": "in vivo, P rats", "details": "MC-100093 50 mg/kg or ceftriaxone 200 mg/kg i.p. 5 days", "experimental": "(§1) We used micro-punch procedure to dissect the subregions of the NAc such as NAc-core and NAc-shell as well as the subregions of prefrontal cortex such as infralimbic (IL) and prelimbic (PL) from the brain on day 6 after the last injection day. P rats were removed from the cage and rapidly euthanized by CO2 inhalation followed by rapid decapitation with a guillotine. Brains were isolated and immediately frozen on dry ice and stored at −80° C. The stereotaxic coordinates provided by Paxinos and colleague's rat brain stereotactic atlas was used to isolate NAc-core and NAc-shell using a cryostat apparatus (−20° C.), which then kept at −80° C. for later western blot analyses.\n(§2) Western Blot assay was performed to measure changes in the expression of GLT-1, xCT, mGluR1, mGluR5, PPAR-α, PPARγ, GAPDH and β-tubulin in the NAc-core and NAc-shell as described in previous publications. A lysis buffer containing protease and phosphatase inhibitors was used to generate a homogenate of liver, Nac-core, and Nac-shell samples. The amount of protein was quantified using a detergent compatible protein assay (Bio-Rad, Hercules, CA, USA) for each sample. Samples were mixed with laemmli dye and loaded with equal amounts on polyacrylamide gels (10%), which separated the proteins using electrophoresis. After that, polyvinylidene difluoride (PVDF) membranes were used to transfer the proteins electrophoretically from the gels. Membranes were incubated in 5% free-fat milk in Tris-buffered saline with Tween-20 (TBST) for 30-60 minutes at room temperature. Membranes were then incubated with appropriate primary antibodies overnight at 4° C.: rabbit anti-GLT-1 (1:5000, Abcam, ab41621), rabbit anti-xCT (1:2000, Abcam, ab175186), rabbit anti-mGluR1 (1:1000, Abcam, ab82211), rabbit anti-mGluR5 (1:1000, Abcam, ab76316), rabbit anti-PPAR-α (1:1000, Abcam, ab24509), and rabbit anti-PPARγ (1:1000, Abcam, ab209350). Mouse anti-β-tubulin (1:1000; BioLegend) was used as a loading control antibody for the brain samples and rabbit anti-GAPDH (1:5000; cell signaling) was used as a loading control antibody for the liver samples. Membranes were washed five times on the next day with TBST followed by incubation with appropriate secondary antibody (1:5000) for 90 minutes at room temperature. Chemiluminescent reagents (Super Signal West Pico, Pierce Inc.) were used to detect the proteins using a GeneSys imaging system to develop the digitized blot images. Water-control group data were represented as 100% and all other values were expressed relative to control group to detect changes in the expression of the protein of interest in the brain and liver samples.\nAll statistical analyses were conducted with Graphpad Prism software, with p-values of 0.05 or less being statistically significant. […]"}, "[1]": {"details": "cited from earlier work"}, "xCT": {"test_system": "xCT", "assay": "Western blot xCT expression in NAc-core, NAc-shell and liver (50 mg/kg study)", "assay_type": "in vivo, P rats", "details": "MC-100093 50 mg/kg or ceftriaxone 200 mg/kg i.p. 5 days; for Protein expression of xCT in the NAc-shell: vs Ethanol group", "experimental": "as §1, §2\nAll statistical analyses were conducted with Graphpad Prism software, with p-values of 0.05 or less being statistically significant. We performed a two-way (mixed model) ANOVA followed by Bonferroni multiple comparison post-hoc test to analyze 24 h ethanol consumption, 24 h water consumption, and daily body weight. For the Western blot and oil red O staining analysis, we performed one-way ANOVA with Newman-Keuls as a post hoc multiple comparison test to measure differences between groups as a percentage (relative to control values)."}, "GLT-1": {"test_system": "GLT-1", "assay": "Immunoblot GLT-1 in mPFC-IL, mPFC-PL, NAc-core, NAc-shell (section B)", "assay_type": "in vivo, Male and female alcohol-preferring (P) rats", "details": "100 mg/kg i.p. 5 days", "experimental": "After 24 hours of receiving the last injection, rats were euthanized by CO2 inhalation followed by decapitation with a guillotine. Brains were harvested and immediately frozen on dry ice and stored at −80° C. Cryostat (Leica) was used to isolate the mPFC subregions (mPFC-IL and mPFC-PL), and subregions of the NAc (NAc-core and NAc-shell). Brains were micro-punctured using the stereotaxic coordinates following the Rat Brain Atlas. The isolated brain regions were stored at −80° C. for subsequent protein detection using Western Blot assay.\nImmunoblot assays were performed to determine the expression of GLT-1, xCT and β-tubulin in mPFC-IL, mPFC-PL, NAc-core, and NAc-shell of all groups as described previously. Briefly, brain samples were homogenized in lysis buffer supplemented with protease inhibitor and total protein was quantified using protein assay (Bio-Rad, Hercules, CA, USA). Equal amount of the samples was loaded on polyacrylamide gel (10-20%).\nSubsequently, proteins were transferred on a PVDF membrane and blocked with 5% milk in Tris-buffered saline Tween-20 (1×TBST) for 30 minutes at room temperature. Membranes were then incubated overnight at 4° C. with one of the following antibodies: rabbit anti-GLT-1 (1:1000, Abcam, AB41621), and/or rabbit anti-xCT (1:1000, Abcam, AB175186). Mouse anti-β-tubulin (1:1000; Cell Signaling D71G5) was used as a loading control antibody. On the following day, membranes were washed five times with 1×TBST followed by incubation with appropriate secondary antibody (1:4000) for 60 minutes at room temperature. Chemiluminescent reagents (Super Signal West Pico, Pierce Inc.) were used to detect proteins using a ChemiDoc imaging system (BioRad, USA).\nGLT-1 and xCT expression were normalized against β-tubulin, a control loading protein. Imaging System and ImageJ software version 1.53a were used to quantify and analyze the expression of GLT-1 and xCT in the subregions of the mPFC and NAc. Data from water-control group were represented as 100% and all other values were expressed relative to this control to evaluate the changes in protein expression.\nThe ratios for treated animals in the ethanol/saline and ethanol/MC-100093 groups were normalized to the mean ratios for the control group (water/saline group). The control ratio was set at 100, and the results from each of the treated groups were expressed as a percentage relative to the water/saline group value of 100%. We normalized the ethanol/saline and ethanol/MC-100093 groups data to water/saline group to reduce any differences of contrast with Western blots for each set of groups (control/water/saline, ethanol/saline, and ethanol/MC-100093 groups).\nAll statistical analyses were conducted using GraphPad Prism (10). Two-way (mixed) ANOVA followed by Bonferroni multiple comparison post-hoc test was performed to analyze daily ethanol intake, average daily water intake and body weight. One-way ANOVA followed by Newman-Keuls post hoc tests were used to analyze Western blot data. All statistical analyses data were reported as a p<0.05 of significance."}, "[2]": {"details": "female P rats, vs ethanol-saline and water-saline"}, "[3]": {"details": "male P rats, vs ethanol-saline and water-saline"}}, "note": "Entries after “also recorded” stand apart in the source; their conditions may differ.", "data": [{"smiles": "C[C@@H](O)[C@H]1C(=O)N[C@@H]1[C@@H](C)C(=O)N1CCN(C)CC1", "note": "[MC-100093]", "values": [{"measurement": "Protein expression of PPAR-γ in the liver", "setting": "PPAR-γ", "value": "not changed significantly"}, {"measurement": "Protein expression of mGluR5 in the NAc-core", "setting": "mGluR5; among all groups", "value": "non-significant difference; also recorded: no significant difference"}, {"measurement": "Protein expression of mGluR5 in the NAc-shell", "setting": "mGluR5; vs control or ethanol groups", "value": "no significant change in the expression of mGluR5; also recorded: significantly downregulated in ethanol group compared to control, Ethanol-MC (50 mg/kg), and Ethanol-CEF (200 mg/kg) groups; also recorded: normalizing levels of mGluR5"}, {"measurement": "Aqueous solubility", "setting": "[1]", "value": "high aqueous solubility"}, {"measurement": "Protein expression of xCT in the NAc-core", "setting": "xCT; among all groups", "value": "non-significant difference; also recorded: no significant difference"}, {"measurement": "Protein expression of xCT in the liver", "setting": "xCT; between all groups", "value": "no significant differences"}, {"measurement": "Protein expression of xCT in the NAc-shell", "setting": "xCT", "value": "significantly higher level of xCT; also recorded: normalized GLT-1 and xCT levels in the NAc-shell"}, {"measurement": "Protein expression of xCT in the NAc-shell", "setting": "xCT; listed as MC-100095", "value": "significantly increased xCT expression"}, {"measurement": "GLT-1 expression in the NAc-core", "setting": "GLT-1; female P rats", "value": "significant upregulation of GLT-1 expression"}, {"measurement": "GLT-1 expression in the NAc-shell", "setting": "GLT-1; female P rats", "value": "significant upregulation of GLT-1 expression"}, {"measurement": "GLT-1 expression in the mPFC-IL", "setting": "GLT-1; [2]", "value": "upregulated GLT-1 expression"}, {"measurement": "GLT-1 expression in the mPFC-PL", "setting": "GLT-1; [2]", "value": "significant upregulation of GLT-1 expression"}, {"measurement": "GLT-1 expression in mPFC and NAc subregions (summary)", "setting": "GLT-1; female and male P rats, vs ethanol-saline groups, 100 mg/kg", "value": "upregulated GLT-1 and xCT expression in mPFC and NAc subregions; also recorded: increasing GLT-1 and xCT expression in the mPFC and NAc subregions"}, {"measurement": "GLT-1 expression in the mPFC-IL", "setting": "GLT-1; male P rats", "value": "attenuated ethanol-induced downregulation of GLT-1 expression"}, {"measurement": "GLT-1 expression in the NAc-core", "setting": "GLT-1; [3]", "value": "significantly increased"}, {"measurement": "GLT-1 expression in the NAc-shell", "setting": "GLT-1; [3]", "value": "significantly increased"}, {"measurement": "GLT-1 expression in the mPFC-PL", "setting": "GLT-1; male P rats, vs ethanol-saline and water-saline, 100 mg/kg", "value": "significantly upregulated GLT-1 expression; also recorded: significantly increased"}]}]}
